The source of these data is article PMC8187944, “Discovery of Potent EGFR Inhibitors With 6-Arylureido-4-anilinoquinazoline Derivatives” (Frontiers in Pharmacology, 2021).

Read-outs that look alike come from different tables or passages of the source.

In one series the test system is MCF-7 cells. Nature of the series: Anti-proliferative assay, standard CCK-8 method. Particulars: read-out: Proliferative inhibition (IC50, μM) MCF-7. The format is cell-based, human. The text has this: (§1) All reagents and solvents met the criteria of analytical reagents before use. All cancer cell lines (A549, human non-small-cell lung cell line; HT-29, human colonic adenocarcinoma cell line; MCF-7, human breast cancer cell line) were purchased from Stem Cell Bank, Chinese Academy of Sciences. […] ADP-Glo™ kinase assay kits were provided by Promega (Beijing) Biotech Co., Ltd. (Beijing, China). All kinase subtypes were supplied by SignalChem (BC, Canada).
(§2) The designed 4-anilinoquinazoline derivatives were evaluated for their antitumor bioactivities in vitro against three human tumor cell lines (A549, HT-29, and MCF-7) using the standard CCK-8 method. The CCK-8 method is based on WST-8 dye, 2-(2-methoxy-4-nitrophenyl)-3-(4-nitrophenyl)-5-(2,4-disulfophenyl)-2H-tetrazolium. WST-8 can be bio-reduced by dehydrogenases in mitochondria into orange water-soluble formazan products. Briefly, selected cancer cells in the logarithmic growth phase (1 × 10^4) were inoculated in 96-well plates and further cultured in the incubator for 24 h. First, the target compounds were diluted to different concentrations with culture medium with each dilution gradually diluted from the highest concentration solution. Second, the original culture medium was removed after the cells were completely adherent to the wall, and the compounds at various concentrations prepared above were added. In this experiment, a control group and a blank group were set: the former was treated with 0.1% DMSO solution, and the latter was treated with only the culture medium. […] A microplate reader was adopted to record the absorbance at 450 nm, and in this assay, gefitinib, erlotinib, and sorafenib were used as the reference drugs.

The test system of a further series is HT-29 cells. Nature of the series: Anti-proliferative assay, standard CCK-8 method. The format is cell-based, human. Particulars: mean ± SD of at least three independent experiments, read-out: Proliferative inhibition (IC50, μM) HT-29.
Excerpt: as §1, §2

Another series relates to A549 cells. Nature of the series: Anti-proliferative assay, standard CCK-8 method. The format is cell-based, human. The conditions noted are these: mean ± SD of at least three independent experiments, read-out: Proliferative inhibition (IC50, μM) A549.
Excerpt: as §1, §2

In another series the target is T1, EGFR (Homo sapiens, UniProt P00533).
T1 construct: 2 μl (50 ng/ml) of EGFR kinase
Nature of the series: EGFR kinase inhibition, ADP-Glo assay. The format is biochemical. The conditions noted are these: ADP-Glo; mean ± SD of at least two independent experiments; read-out: Enzymatic inhibition IC50 (nM) EGFR. The procedure: The EGFR kinase inhibition activities of the target compounds were evaluated by the ADP-Glo™ assay. The ADP-Glo™ kinase detection kit is a luminescence kinase detection approach that detects the amount of ADP produced by the kinase reaction. After ADP is converted into ATP, ATP can be used as the substrate of the luciferase-catalyzed reaction to generate an optical signal, which is positively correlated with kinase activity. […] The above-prepared systems were sealed and incubated at room temperature for 2 h, and 5 μl of ADP-GLO was added to terminate the kinase reaction. Then, the culture plate was sealed and incubated in a thermostatic oscillator for 40 min to fully consume the remaining ATP. The luciferase/luciferin reaction was adopted to determine the newly generated ATP level.
Background: In ADP-Glo the light output rises with the ADP produced.

Series [1] relates to A549, HT-29, and MCF-7 cells. Nature of the series: Anti-proliferative assay, CCK-8, summaries over all three cell lines. The format is cell-based. Particulars: Homo sapiens, span over A549, HT-29 and MCF-7 cells, read-out: IC50 against the selected cell lines.
Excerpt: as §1, §2

The mark [2] stands for this setting: mean ± SD of at least three independent experiments.
The mark [3] stands for this setting: Homo sapiens, MCF7, mean ± SD of at least three independent experiments.

Turning to “1-(4-chloro-3-(trifluoromethyl) phenyl)-3-(4-((2,3-dimethylphenyl) amino)-3,4-dihydroquinazolin-6-yl) urea [Compound 7n]”, the IC50 with MCF-7 cells (setting [2]) is 3.11 ± 0.3 µM; with HT-29 cells it was 2.67 ± 1.02 µM; in the series on A549 cells, 2.67 ± 0.76 µM.
As for “1-(4-chloro-3-(trifluoromethyl) phenyl)-3-(4-((2,3-dimethylphenyl) amino)-3,4-dihydroquinazolin-6-yl) urea [Compound 7t]”, the IC50 was 728.1 ± 1.65 nM at EGFR, more than 50 µM in the series with MCF-7 cells (setting [2]), 48.3 ± 1.9 µM in the series on HT-29 cells and more than 50 µM in the series with A549 cells.
As for `O=C(Nc1ccccc1)Nc1ccc2ncnc(Nc3cccc(Br)c3)c2c1` [Compound 7a], the melting point lay in the range of 250 to 250.9 °C. Also, the IC50 in the series on MCF-7 cells (setting [3]) is 15.9 ± 2.28 µM. Moreover, in the series with HT-29 cells (Homo sapiens), the IC50 is 4.66 ± 0.56 µM. The IC50 with A549 cells (Homo sapiens) was 5.81 ± 0.84 µM.
`O=C(Nc1ccccc1)Nc1ccc2ncnc(Nc3ccc(Br)cc3F)c2c1` [Compound 7c] yielded a melting point of 256 to 256.8 °C. Further, on EGFR, the IC50 turned out to be 20.1 ± 2.21 nM. The IC50 with MCF-7 cells (setting [3]) stood at 8.57 ± 0.27 µM. For the same compound, the IC50 with HT-29 cells (Homo sapiens) amounted to 5.92 ± 1.04 µM. For the same compound, in the series on A549 cells (Homo sapiens), the IC50 came out at 6.16 ± 0.45 µM.
The like results for `O=C(Nc1ccccc1)Nc1ccc2ncnc(Nc3ccc(F)c(Cl)c3)c2c1` [Compound 7d] were, in that order, 233 to 233.7 °C, 11.8 ± 0.36 nM, 44.2 ± 0.97 µM, 39.2 ± 2.01 µM and 38.65 ± 0.21 µM.
Compound `O=C(Nc1ccccc1)Nc1ccc2ncnc(Nc3ccc(F)cc3)c2c1` [Compound 7f] gave a melting point of 252.8 to 253.5 °C. In addition, the IC50 at EGFR amounted to 11.7 ± 0.79 nM. In addition, in the series on MCF-7 cells (setting [3]), the IC50 amounted to 44.3 ± 1.12 µM. Moreover, in the series on HT-29 cells (Homo sapiens), the IC50 was found to be 48.3 ± 0.78 µM. For the same compound, the IC50 in the series with A549 cells (Homo sapiens) was more than 50 µM.
In the case of `Cc1cccc(Nc2ncnc3ccc(NC(=O)Nc4ccccc4)cc23)c1C` [Compound 7h], the melting point was 242.8 to 243.7 °C. Further, the IC50 at EGFR was determined as 19.7 ± 1.87 nM. For the same compound, the IC50 in series [1] was more than 50 µM. Besides, the IC50 in the series on MCF-7 cells (setting [3]) is more than 50 µM. In addition, the IC50 with HT-29 cells (Homo sapiens) was more than 50 µM. Also, in the series on A549 cells (Homo sapiens), the half-inhibitory concentration (IC50) was more than 50 µM.
Turning to `O=C(Nc1ccc(Cl)c(C(F)(F)F)c1)Nc1ccc2ncnc(Nc3ccc(Br)cc3)c2c1` [Compound 7k], the melting point was in the range of 269.8 to 271.1 °C. Besides, the half-maximal inhibitory concentration (IC50) in the series on MCF-7 cells (setting [3]) was 3.54 ± 0.07 µM. The IC50 with HT-29 cells (Homo sapiens) was found to be 2.3 ± 0.5 µM. The IC50 in the series on A549 cells (Homo sapiens) was 2.79 ± 0.44 µM.
In the case of `Cc1ccc(NC2NC=Nc3ccc(NC(=O)Nc4ccc(Cl)c(C(F)(F)F)c4)cc32)cc1` (stereo not drawn) [Compound 7m, 1-(4-chloro-3-(trifluoromethyl)phenyl)-3-(4-(p-tolylamino)-3,4-dihydroquina-zolin-6-yl) urea], the IC50 is 5.53 ± 0.39 µM in the series on MCF-7 cells (setting [2]), 2.61 ± 1.25 µM with HT-29 cells and 5.6 ± 0.31 µM in the series on A549 cells.
Compound `Cc1ccc(Nc2ncnc3ccc(NC(=O)Nc4ccc(F)cc4)cc23)cc1` [Compound 7o] registered a melting point of 247.2 to 248.4 °C. Besides, the IC50 on EGFR was 123.9 ± 1.09 nM. Also, the IC50 in the series on MCF-7 cells (setting [3]) was 33.7 ± 10.1 µM. Moreover, the IC50 with HT-29 cells (Homo sapiens) was determined as 7.83 ± 0.97 µM. In the series with A549 cells (Homo sapiens), the IC50 came out at 35.3 ± 0.57 µM.
The like results for `COc1ccc(NC(=O)Nc2ccc3ncnc(Nc4cccc(C)c4C)c3c2)cc1` [Compound 7p] were, in that order, 241.1 to 242.7 °C, 58.1 ± 1.99 nM, 40.2 ± 2.13 µM, 11.1 ± 0.39 µM and 9.34 ± 0.73 µM.
For the compound `COc1ccc(NC(=O)Nc2ccc3ncnc(Nc4ccc(Br)cc4)c3c2)cc1` [Compound 7q], the melting point lay in the range of 267.1 to 268.2 °C. Also, the IC50 on EGFR was 470.4 ± 1.28 nM. Further, the IC50 in the series on MCF-7 cells (setting [3]) is 17.9 ± 0.89 µM. For the same compound, the IC50 in the series on HT-29 cells (Homo sapiens) was found to be 36.96 ± 0.17 µM. Besides, the IC50 in the series on A549 cells (Homo sapiens) worked out at 5.21 ± 0.3 µM.
The like results for `COc1ccc(NC(=O)Nc2ccc3ncnc(Nc4ccc(F)cc4)c3c2)cc1` [Compound 7r] were, in that order, 250.2 to 251.8 °C, 59.7 ± 1.31 nM, 46.1 ± 1.98 µM, 48.21 ± 0.23 µM and more than 50 µM.
As to `COc1ccc(NC(=O)Nc2ccc3ncnc(Nc4ccc(C)cc4)c3c2)cc1` [Compound 7s], the melting point was in the range of 259.5 to 260.1 °C. In addition, the IC50 at EGFR came to 108 ± 2.64 nM. The IC50 in the series with MCF-7 cells (setting [3]) is 47.6 ± 0.76 µM. Besides, the IC50 with HT-29 cells (Homo sapiens) was found to be 46.2 ± 0.57 µM. In the series with A549 cells (Homo sapiens), the IC50 is more than 50 µM.
For the compound `C#Cc1cccc(Nc2ncnc3cc(OCCOC)c(OCCOC)cc23)c1` [Erlotinib, erlotinib, reference compound], the IC50 in series [1] was 1.84 to 23.2 µM; with MCF-7 cells (setting [3]) it was 11.4 ± 0.43 µM; in the series on HT-29 cells (Homo sapiens) it was 22.8 ± 1.12 µM; with A549 cells (Homo sapiens) it was 23.2 ± 0.51 µM.
The like results for `CNC(=O)c1cc(Oc2ccc(NC(=O)Nc3ccc(Cl)c(C(F)(F)F)c3)cc2)ccn1` [Sorafenib, sorafenib, reference compound] were, in that order, 1.84 to 23.2 µM, 3.47 ± 0.39 µM, 2.27 ± 0.43 µM and 1.84 ± 0.17 µM.

For orientation: IC50 means the concentration that inhibits the measured activity by half. As a reminder, the melting point is the temperature, or range, at which the solid turns liquid.
